Laboratory results taken from patent US6492342B1, “Hygromycin A prodrugs” (Pfizer Inc., priority 1999, dated 2002).

System: panel of bacterial strains
Assay: Microtiter tray MIC assay against a panel of bacterial strains (NCCLS)
Format: cell-based
Settings: microtiter trays, compounds dissolved in DMSO
Source text: The assay, described below, employs conventional methodology and interpretation criteria and is designed to provide direction for chemical modifications that may lead to compounds with antibacterial activity against susceptible and drug-resistant organisms including, but not limited to, beta-lactam, macrolide and vancomycin resistance. In the assay, a panel of bacterial strains is assembled to include a variety of target pathogenic species, including representatives of antibiotic resistant bacteria. Use of this panel enables the chemical structure/activity relationship to be determined with respect to potency and spectrum of activity. The assay is performed in microtiter trays and interpreted according to Performance Standards for Antimicrobial Disk SusceDtibility Tests—Sixth Edition; Approved Standard, published by The National Committee for Clinical Laboratory Standards (NCCLS) guidelines; the minimum inhibitory concentration (MIC) is used to compare strains. Compounds are initially dissolved in dimethylsulfoxide (DMSO) as stock solutions.

## CC(=Cc1ccc(OC2OC(/C(C)=N/OCc3cccc(Cl)c3)C(O)C2O)c(OC(=O)C(C)(C)C)c1)C(=O)NC1C(O)C(O)C2OCOC2C1O (stereo not shown) [Example 1]
  antibacterial activity in the microtiter assay (MIC): exhibits antibacterial activity
